The supplement of paper PMC10307832

Key:
Test in all cases: relative viability (nuclei count vs DMSO), 5 days (fraction); higher = more cells survive
RO-3306 + Pictilisib = compound: C1=CC2=C(C=CC(=C2)C=C3C(=O)NC(=NCC4=CC=CS4)S3)N=C1 [RO-3306] + CS(=O)(=O)N1CCN(Cc2cc3nc(-c4cccc5[nH]ncc45)nc(N4CCOCC4)c3s2)CC1 [Pictilisib] (partner 1 µM)
Procedure, shortened: (§1)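 Dosing by pin tool came one day after lung cancer cell lines were seeded in 1536-well plates, using either one drug or a fixed anchor-drug dose plus five library-drug doses (not always all listed) in √10 steps. After 5 days, nuclei were counted on 4× images. Relative viability is treated-well nuclei count divided by vehicle-well nuclei count, and values are medians of duplicate plates.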

RO-3306 + Linsitinib = compound: C1=CC2=C(C=CC(=C2)C=C3C(=O)NC(=NCC4=CC=CS4)S3)N=C1 [RO-3306] + C[C@]1(O)C[C@@H](c2nc(-c3ccc4ccc(-c5ccccc5)nc4c3)c3c(N)nccn32)C1 [Linsitinib] (partner 1 µM)
Procedure, shortened: as §1

[1] = compound: O=S(=O)(c1ccccc1)N(CC(F)(F)F)c1ccc(C(O)(C(F)(F)F)C(F)(F)F)cc1 + COc1cc2c(Oc3ccc(NC(=O)C4(C(=O)Nc5ccc(F)cc5)CC4)cc3F)ccnc2cc1OCCCN1CCOCC1 [Foretinib] (partner 0.25 µM)
Procedure, shortened: as §1

[2] = compound: O=S(=O)(c1ccccc1)N(CC(F)(F)F)c1ccc(C(O)(C(F)(F)F)C(F)(F)F)cc1 + COc1cccc2cc(-c3nc([C@H]4CC[C@H](C(=O)O)CC4)n4ncnc(N)c34)[nH]c12 [OSI-027] (partner 0.5 µM)
Procedure, shortened: as §1

[3] = compound: O=S(=O)(c1ccccc1)N(CC(F)(F)F)c1ccc(C(O)(C(F)(F)F)C(F)(F)F)cc1 + N=C(N)NC(=N)NCCc1ccccc1 [Phenformin] (partner 250 µM)
Procedure, shortened: as §1

Cell Line	relative viability (RO-3306 + Pictilisib; first compound 0.01 µM)	relative viability (RO-3306 + Pictilisib; first compound 0.03162 µM)	relative viability (RO-3306 + Pictilisib; first compound 0.1 µM)	relative viability (RO-3306 + Pictilisib; first compound 0.3162 µM)	relative viability (RO-3306 + Pictilisib; first compound 1 µM)	relative viability (RO-3306 + Linsitinib; first compound 0.01 µM)	relative viability (RO-3306 + Linsitinib; first compound 0.03162 µM)	relative viability (RO-3306 + Linsitinib; first compound 0.1 µM)	relative viability (RO-3306 + Linsitinib; first compound 0.3162 µM)	relative viability (RO-3306 + Linsitinib; first compound 1 µM)	relative viability ([1]; first compound 0.8 µM)	relative viability ([1]; first compound 2.53 µM)	relative viability ([1]; first compound 8 µM)	relative viability ([2]; first compound 0.8 µM)	relative viability ([2]; first compound 2.53 µM)	relative viability ([2]; first compound 8 µM)	relative viability ([3]; first compound 0.8 µM)	relative viability ([3]; first compound 2.53 µM)	relative viability ([3]; first compound 8 µM)
NCI-H1944	0.283	0.299	0.313	0.368	0.325	1.22	1.07	1.08	1.36	1.17	0.938	0.826	0.832	0.423	0.385	0.401	0.209	0.19	0.197
HCC-78	0.198	0.213	0.209	0.224	0.229	0.481	0.43	0.447	0.734	0.47	0.533	0.459	0.466	0.342	0.399	0.469	0.631	0.612	0.581
PC-3 [JPC-3]	0.725	0.717	0.672	0.769	0.882	0.947	0.968	0.996	0.963	0.971	1.1	0.983	0.951	0.864	0.744	0.785	0.441	0.551	0.501
NCI-H2126	0.413	0.426	0.506	0.425	0.477	0.678	0.709	0.775	0.678	0.635	1.35	1.19	1.1	0.819	0.673	0.717	0.578	0.533	0.518
LK-2	0.482	0.499	0.64	0.681	0.534	0.552	0.495	0.635	0.425	0.554	1.21	1.16	0.835	0.213	0.199	0.229	0.505	0.66	0.555
NCI-H460	0.388	0.374	0.371	0.329	0.32	1.14	–	0.901	1.3	0.889	1.14	0.889	0.778	0.882	0.699	0.723	0.613	0.469	0.451
HCC-827	0.913	0.983	0.878	1.07	1.05	1.01	0.916	0.99	0.959	0.992	1.04	1.02	0.922	0.883	0.858	0.766	0.448	0.411	0.4
NCI-H838	0.411	0.34	0.432	0.505	0.393	1.11	0.742	1.05	1.15	0.92	1.15	1.05	1.02	0.411	0.412	0.467	0.656	0.56	0.627
